Assay results reported in patent publication US12383572B2, “Administration of an anti-activin-a compound to a subject” (AMGEN INC., priority 2013, dated 2025).

Assays:
TOV-21G xenografts = experiment: TOV-21G xenograft, sActRIIB and 5-FU chemotherapy combination; type: in vivo, human; conditions: nude mice; sActRIIB 10 mg/kg SC 1x/week, 5-FU 50 mg/kg IP 3 cycles, alone or together
Description: TOV-21G xenograft. 5×10^6 TOV-21G ovarian cancer cells were implanted subcutaneously into individual female athymic nu/nu mice (Harlan). Treatment was initiated at day 12 after tumor implantation, when the average tumor volume reached approximately 150 mm^3. The mice received PBS, sActRIIB (30 mg/kg, SC, 1×/week) or activin-A antibody (30 mg/kg, SC, 2×/week). In a separate chemotherapy combination experiment, the mice were treated with PBS, sActRIIB (10 mg/kg, SC, 1×/week), 5-FU (50 mg/kg, IP, 3 cycles, 4 daily injections per cycle) or sActRIIB and 5-FU combination at the same doses above. For all xenograft experiments, the tumor sizes were measured longitudinally by using an electronic caliper. Immediately prior to the 1st dose, the tumor-bearing mice were randomized to ensure even distribution in tumor sizes across different groups. Tumor volumes (mm^3) were calculated as tumor length (mm)×tumor width (mm)×tumor height (mm). Tumor weights were determined by necropsy.

[1] = tested on: TOV-21G ovarian xenograft tumors; experiment: Activin-A antibody and doxorubicin in TOV-21G tumor-bearing nude mice: tumor size and weight; type: in vivo, human; conditions: activin-A antibody 20 mg/kg SC 1x/week, DOX 4 mg/kg IP 1x/week; vs vehicle-treated
Excerpt: (§1) The objective of this study was to examine the effects of pharmacological administration of activin-A antibody, doxorubicin, and activin-A antibody plus doxorubicin, on body weight, tumor growth and muscle mass in nude mice implanted with TOV-21G ovarian xenograft tumors. The activin-A antibody used was the same as described in the Materials section above. Eight-week-old female Athymic nude mice were each injected with 2.2×10^6 TOV-21G cells subcutaneously (SC) into the left site of the lower flank of the mice. On day 12 post tumor implantation, the mice were divided into 4 groups by body weight and tumor size and then treated with vehicle, activin-A antibody, doxorubicin, or the combination of activin-A antibody and doxorubicin. In addition, a group of non-tumor bearing mice was used as normal control and received PBS.
(§2) Mice were weighed weekly. Body weight data were recorded longitudinally. Tumor size was measured longitudinally by using an electronic caliper (Fred V. Fowler Company, Inc.). […] At the end of the study, mice in all groups were subjected to terminal necropsy and lean carcass weight (excluding skin, adipose tissue, internal organs, and head) was determined by using standard anatomical dissection procedures. […] All results were expressed as the mean±SEM. […]

[2] = Activin-A antibody and doxorubicin in TOV-21G tumor-bearing nude mice: body weight and muscle mass; type: in vivo, mouse
Excerpt: as §1, §2

[3] = sActRIIB and doxorubicin in TOV-21G tumor-bearing nude mice: body weight and muscle mass; type: in vivo, mouse
Description: (§3) The objective of the present study was to examine the effect of pharmacological administration of sActRIIB, doxorubicin (dox), and sActRIIB plus doxorubicin, respectively, on body weight, tumor growth and muscle mass in nude mice implanted with TOV-21G ovarian xenograft tumors. Eight-week-old female Athymic nude mice were SC injected with 0.2 mL of 5×10^6 TOV-21G cells into the left site of the lower flank of the mice. After 10 days of tumor implantation, the mice were divided into 4 groups by body weight and tumor size and then treated with vehicle, sActRIIB, doxorubicin or the combination of sActRIIB and doxorubicin. In addition, a group of non-tumor bearing mice was used as normal control and received PBS.
(§4) Mice were weighed weekly. Body weight data were recorded longitudinally. Tumor size was measured longitudinally by using an electronic caliper. The following formula was used to calculate actual tumor volume (Tomayko M and Reynolds C, 1989): (Volume of a rectangular solid tumor: Tumor volume (mm^3)=length (mm)×width (mm)×height (mm) of tumor). At the end of the study, mice in all groups were subjected to terminal necropsy and lean carcass weight (excluding skin, adipose tissue, internal organs, and head) was determined by using standard anatomical dissection procedures. […] All results were expressed as the mean±SEM (standard error of the mean). […]

[4] = tested on: TOV-21G ovarian xenograft tumors; experiment: sActRIIB and doxorubicin in TOV-21G tumor-bearing nude mice: tumor size and weight; type: in vivo, human; conditions: sActRIIB 10 mg/kg SC 1x/week, DOX 2 mg/kg IP 1x/week; 4-week study
Description: as §3, §4

| SMILES | rate of tumor growth (TOV-21G xenografts) | tumor size and tumor weight (day 47) / tumor growth [1] | body weight ([2]; TOV-21G tumor-bearing nude mice, activin-A antibody 20 mg/kg SC 1x/week, DOX 4 mg/kg IP 1x/week) | lean carcass weight and calf muscle mass ([2]; TOV-21G-implanted nude mice, necropsy at end of 5-week experiment) | body weight ([3]; TOV-21G tumor-bearing nude mice, sActRIIB 10 mg/kg SC 1x/week, DOX 2 mg/kg IP 1x/week) | lean carcass weight and calf muscle mass ([3]; TOV-21G-implanted nude mice, necropsy at end of 4-week experiment) | tumor size and tumor weight vs vehicle-treated TOV-21G group [4] |
| --- | --- | --- | --- | --- | --- | --- | --- |
| O=c1[nH]cc(F)c(=O)[nH]1 [Antibody 5-FU, 5-Fluorouracil, reference compound] | decreased the rate of tumor growth significantly | – | – | – | – | – | – |
| COc1cccc2c1C(=O)c1c(O)c3c(c(O)c1C2=O)C[C@@](O)(C(=O)CO)C[C@@H]3O[C@H]1C[C@H](N)[C@H](O)[C@H](C)O1 [Doxorubicin, doxorubicin, reference compound] | – | capable of inhibiting TOV-21G tumor growth | further decline (non-statistically significant) in body weight | no effect on the loss of lean carcass weight and calf muscle mass | further decline (non-statistically significant) in body weight | no effect on the loss of lean carcass weight and calf muscle mass | significantly reduced tumor size and tumor weight |
